Test results from patent US10065941B2, “Aminotriazine derivative and pharmaceutical composition comprising the same” (Shionogi & Co., Ltd., priority 2013, dated 2018).

The molecules below were run against human P2X3 receptor (Homo sapiens (Human), UniProt P56373) (assay: Evaluation of human P2X3 receptor inhibitory activity (Test Example 1)). Details: C6BU-1 cell transfected with human P2X3 receptor gene, FLIPR 384.
Chain of human P2X3 receptor (P56373 whole entry): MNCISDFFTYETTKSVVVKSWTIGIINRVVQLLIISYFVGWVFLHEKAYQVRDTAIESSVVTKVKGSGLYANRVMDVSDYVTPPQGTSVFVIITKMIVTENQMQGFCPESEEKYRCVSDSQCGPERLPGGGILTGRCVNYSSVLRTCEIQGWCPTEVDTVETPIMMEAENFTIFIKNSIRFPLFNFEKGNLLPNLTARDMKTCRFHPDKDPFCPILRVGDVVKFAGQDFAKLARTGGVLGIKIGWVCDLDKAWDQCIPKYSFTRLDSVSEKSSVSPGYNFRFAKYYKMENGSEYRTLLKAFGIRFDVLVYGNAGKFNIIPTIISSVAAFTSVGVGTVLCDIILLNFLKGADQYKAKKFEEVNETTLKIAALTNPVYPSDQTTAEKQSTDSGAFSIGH
Assay type: cell-based
Protocol: Stably expressing cell line (C6BU-1 cell transfected with human P2X3 receptor gene (GenBank accession number Y07683) was used. The cells were seeded in a 384-well PDL-coated microtiter plate at a concentration of 3000 cells/well and cultured in the medium (8.3% fetal bovine serum, 8.3% horse serum, and 1% antibiotic and antifungal in DMEM) for one day at 37° C. under 5% carbon dioxide atmosphere. The medium was replaced with 4 μM Fluo-3-AM solution (20 mM HEPES, 137 mM NaCl, 2.7 mM KCl, 0.9 mM MgCl2, 5.0 mM CaCl2, 5.6 mM D-glucose, 2.5 mM probenecid, 0.5% BSA, and 0.04% Pluronic F-127, pH 7.5) and incubated at 37° C. under 5% dioxide carbon atmosphere for one hour. The plate was washed with washing buffer (20 mM HEPES, 137 mM NaCl, 2.7 mM KCl, 0.9 mM MgCl2, 5.0 mM CaCl2, 5.6 mM D-glucose, 2.5 mM probenecid, pH7.5), and each well was added with 20 μL of the washing buffer. The plate was placed in High-Throughput Screening System FLIPR 384 (Molecular Device Co.). Measurement of fluorescence intensity by FLIPR 384 was started, and 20 μL of DMSO solutions containing different concentrations of the test compound as prepared by dilution with dilution buffer (20 mM HEPES, 137 mM NaCl, 2.7 mM KCl, 0.9 mM MgCl2, 5.0 mM CaCl2, 5.6 mM D-glucose, 2.5 mM probenecid, 0.1% Pluronic F-127, pH7.5) were dispensed to each well through the built-in automatic dispenser. Five minutes after, 150 nM ATP solution (25 μL) prepared by dilution with the dilution buffer was dispensed through the built-in automatic dispenser, and the measurement of fluorescence intensity was continued for 4 min. For each well, the specific maximum fluorescence intensity was calculated as the ratio of the maximum fluorescence intensity after addition of the ATP solution to the fluorescence intensity at the starting of the measurement. […] The specific maximum fluorescence intensity and IC50 were calculated using Spotfire (Science & Technology Systems, Inc.)
Cc1ccc(Cn2c(=O)n(CC(C)(C)C(=O)O)c(=O)[nH]/c2=N\c2ccc(Oc3ncccc3Cl)cc2)cc1 [Compound I-118] gave an IC50 of 9 nM. Cc1ccc(Cn2c(=O)n(C[C@H](C)C(=O)O)c(=O)[nH]/c2=N\c2ccc(Oc3cccc(Cl)n3)cc2)cc1 [Compound I-119] gave an IC50 of 6 nM. In the case of COC(=O)[C@H](C)[C@H](C)n1c(=O)[nH]/c(=N\c2ccc(Oc3ccc(Cl)cn3)cc2)n(Cc2ccc(C)cc2)c1=O [Compound I-120], the IC50 is reported as 9 nM. COC(=O)[C@H](Cn1c(=O)[nH]/c(=N\c2ccc(Oc3ccc(F)cn3)cc2)n(Cc2ccc(Cl)cc2)c1=O)OC [Compound I-121] showed an IC50 of 6 nM. COC(=O)[C@H](Cn1c(=O)[nH]/c(=N\c2ccc(Oc3cccc(F)n3)cc2)n(Cc2ccc(Cl)cc2)c1=O)OC [Compound I-122] gave an IC50 of 4 nM. Cc1ccc(Cn2c(=O)n([C@@H](C)[C@@H](C)C(=O)O)c(=O)[nH]/c2=N\c2ccc(Oc3ccc(Cl)cn3)cc2)cc1 [Compound I-123] was tested, and the IC50 was 5 nM. For CO[C@@H](Cn1c(=O)[nH]/c(=N\c2ccc(Oc3ccc(F)cn3)cc2)n(Cc2ccc(Cl)cc2)c1=O)C(=O)O [Compound I-124], the IC50 was 5 nM. CO[C@@H](Cn1c(=O)[nH]/c(=N\c2ccc(Oc3cccc(F)n3)cc2)n(Cc2ccc(Cl)cc2)c1=O)C(=O)O [Compound I-125] showed an IC50 of 5 nM. COC(=O)[C@@H](C)Cn1c(=O)[nH]/c(=N\c2ccc(Oc3ccccn3)cc2)n(Cc2ccc(Cl)cc2)c1=O [Compound I-126] gave an IC50 of 5 nM. Molecule Cc1ccc(Cn2c(=O)n(CC(C)(C)C(=O)O)c(=O)[nH]/c2=N\c2ccc(Oc3cccc(Cl)n3)cc2)cc1 [Compound I-128] has an IC50 of 8 nM. Work on COC(=O)[C@H](C)Cn1c(=O)[nH]/c(=N\c2ccc(Oc3ccccn3)cc2)n(Cc2ccc(Cl)cc2)c1=O [Compound I-131] yielded an IC50 of 8 nM. In the case of COC(=O)[C@@H](C)Cn1c(=O)[nH]/c(=N\c2ccc(Oc3ccc(OC(F)F)cn3)cc2)n(Cc2ccc(C)cc2)c1=O [Compound I-132], the IC50 is reported as 8 nM. For COC(=O)C(C)(C)Cn1c(=O)[nH]/c(=N\c2ccc(Oc3ccc(OC(F)F)cn3)cc2)n(Cc2ccc(C)cc2)c1=O [Compound I-133], the IC50 was 8 nM. Molecule C[C@@H](C(=O)O)[C@H](C)n1c(=O)[nH]/c(=N\c2ccc(Oc3cc(C#N)ccn3)cc2)n(Cc2ccc(Cl)cc2)c1=O [Compound I-134] has an IC50 of 7 nM. Cc1ccc(Cn2c(=O)n(C[C@H](C)C(=O)O)c(=O)[nH]/c2=N\c2ccc(Oc3ccc(OC(F)F)cn3)cc2)cc1 [Compound I-135] showed an IC50 of 4 nM. Molecule Cc1ccc(Cn2c(=O)n(CC(C)(C)C(=O)O)c(=O)[nH]/c2=N\c2ccc(Oc3ccc(OC(F)F)cn3)cc2)cc1 [Compound I-136] has an IC50 of 7 nM. With COC(=O)[C@H](C)[C@H](C)n1c(=O)[nH]/c(=N\c2ccc(Oc3ccc(OC(F)F)cn3)cc2)n(Cc2ccc(C)cc2)c1=O [Compound I-137] the IC50 was 14 nM. Cc1ccc(Cn2c(=O)n([C@@H](C)[C@@H](C)C(=O)O)c(=O)[nH]/c2=N\c2ccc(Oc3ccc(OC(F)F)cn3)cc2)cc1 [Compound I-138] was tested, and the IC50 was 7 nM. COC(=O)[C@@H](C)Cn1c(=O)[nH]/c(=N\c2ccc(Oc3cc(OC)ccn3)cc2)n(Cc2ccc(Cl)cc2)c1=O [Compound I-139] gave an IC50 of 10 nM. COC(=O)[C@H](C)Cn1c(=O)[nH]/c(=N\c2ccc(Oc3ccccn3)cc2)n(Cc2ccc(C)cc2)c1=O [Compound I-140] gave an IC50 of 3 nM. C[C@H](Cn1c(=O)[nH]/c(=N\c2ccc(Oc3ccccn3)cc2)n(Cc2ccc(Cl)cc2)c1=O)C(=O)O [Compound I-141] showed an IC50 of 14 nM. With COC(=O)[C@@H](C)Cn1c(=O)[nH]/c(=N\c2ccc(Oc3ccccn3)cc2)n(C[C@H]2CC[C@H](C)CC2)c1=O [Compound I-142] the IC50 was 7 nM. For COC(=O)[C@H](Cn1c(=O)[nH]/c(=N\c2ccc(Oc3ccccn3)cc2)n(Cc2ccc(Cl)cc2)c1=O)OC [Compound I-143], the IC50 was 5 nM. For COC(=O)[C@H](C)[C@H](C)n1c(=O)[nH]/c(=N\c2ccc(Oc3ccccn3)cc2)n(Cc2ccc(Cl)cc2)c1=O [Compound I-144], the IC50 was 9 nM. C[C@@H](Cn1c(=O)[nH]/c(=N\c2ccc(Oc3ccccn3)cc2)n(C[C@H]2CC[C@H](C)CC2)c1=O)C(=O)O [Compound I-145] gave an IC50 of 6 nM. Work on CO[C@@H](Cn1c(=O)[nH]/c(=N\c2ccc(Oc3ccccn3)cc2)n(Cc2ccc(Cl)cc2)c1=O)C(=O)O [Compound I-146] yielded an IC50 of 5 nM. With C[C@@H](C(=O)O)[C@H](C)n1c(=O)[nH]/c(=N\c2ccc(Oc3ccccn3)cc2)n(Cc2ccc(Cl)cc2)c1=O [Compound I-147] the IC50 was 7 nM. Work on Cc1ccc(Cn2c(=O)n(C[C@@H](C)C(=O)O)c(=O)[nH]/c2=N\c2ccc(Oc3ccccn3)cc2)cc1 [Compound I-148] yielded an IC50 of 9 nM. For COC(=O)C(C)(C)Cn1c(=O)[nH]/c(=N\c2ccc(Oc3ccccn3)cc2)n(Cc2ccc(Cl)cc2)c1=O [Compound I-149], the IC50 was 5 nM. Work on COC(=O)C(C)(C)Cn1c(=O)[nH]/c(=N\c2ccc(Oc3ccccn3)cc2)n(Cc2ccc(C)cc2)c1=O [Compound I-150] yielded an IC50 of 4 nM. For COC(=O)[C@@H](C)[C@@H](C)n1c(=O)[nH]/c(=N\c2ccc(Oc3ccccn3)cc2)n(Cc2ccc(Cl)cc2)c1=O [Compound I-151], the IC50 was 10 nM. C[C@H](C(=O)O)[C@@H](C)n1c(=O)[nH]/c(=N\c2ccc(Oc3ccccn3)cc2)n(Cc2ccc(Cl)cc2)c1=O [Compound I-152] gave an IC50 of 6 nM. In the case of COC(=O)[C@@H](C)Cn1c(=O)[nH]/c(=N\c2ccc(Oc3ncccc3OC)cc2)n(Cc2ccc(Cl)cc2)c1=O [Compound I-153], the IC50 is reported as 13 nM. CC(C)(Cn1c(=O)[nH]/c(=N\c2ccc(Oc3ccccn3)cc2)n(Cc2ccc(Cl)cc2)c1=O)C(=O)O [Compound I-154] showed an IC50 of 8 nM. Molecule Cc1ccc(Cn2c(=O)n(CC(C)(C)C(=O)O)c(=O)[nH]/c2=N\c2ccc(Oc3ccccn3)cc2)cc1 [Compound I-155] has an IC50 of 8 nM. With COc1cccnc1Oc1ccc(/N=c2\[nH]c(=O)n(C[C@H](C)C(=O)O)c(=O)n2Cc2ccc(Cl)cc2)cc1 [Compound I-156] the IC50 was 12 nM. COC(=O)C[C@@H](C)n1c(=O)[nH]/c(=N\c2ccc(Oc3ccccn3)cc2)n(Cc2ccc(Cl)cc2)c1=O [Compound I-157] was tested, and the IC50 was 5 nM. COC(=O)C[C@@H](C)n1c(=O)[nH]/c(=N\c2ccc(Oc3cccc(F)n3)cc2)n(Cc2ccc(Cl)cc2)c1=O [Compound I-158] gave an IC50 of 6 nM. COC(=O)C(C)(C)Cn1c(=O)[nH]/c(=N\c2ccc(Oc3ncccc3OC)cc2)n(Cc2ccc(Cl)cc2)c1=O [Compound I-159] gave an IC50 of 9 nM. In the case of COC(=O)C[C@@H](C)n1c(=O)[nH]/c(=N\c2ccc(Oc3ccc(F)cn3)cc2)n(Cc2ccc(Cl)cc2)c1=O [Compound I-160], the IC50 is reported as 5 nM. With COC(=O)C[C@@H](C)n1c(=O)[nH]/c(=N\c2ccc(Oc3ncccc3F)cc2)n(Cc2ccc(Cl)cc2)c1=O [Compound I-161] the IC50 was 10 nM. C[C@H](CC(=O)O)n1c(=O)[nH]/c(=N\c2ccc(Oc3cccc(F)n3)cc2)n(Cc2ccc(Cl)cc2)c1=O [Compound I-163] gave an IC50 of 8 nM. COc1cccnc1Oc1ccc(/N=c2\[nH]c(=O)n(CC(C)(C)C(=O)O)c(=O)n2Cc2ccc(Cl)cc2)cc1 [Compound I-164] was tested, and the IC50 was 29 nM. C[C@H](CC(=O)O)n1c(=O)[nH]/c(=N\c2ccc(Oc3ccc(F)cn3)cc2)n(Cc2ccc(Cl)cc2)c1=O [Compound I-165] showed an IC50 of 15 nM. In the case of C[C@H](CC(=O)O)n1c(=O)[nH]/c(=N\c2ccc(Oc3ncccc3F)cc2)n(Cc2ccc(Cl)cc2)c1=O [Compound I-166], the IC50 is reported as 13 nM. In the case of C[C@@H](Cn1c(=O)[nH]/c(=N\c2ccc(Oc3ccc(F)cn3)cc2)n(Cc2ccc(C(F)F)cc2)c1=O)C(=O)O [Compound I-167], the IC50 is reported as 19 nM. C[C@@H](Cn1c(=O)[nH]/c(=N\c2ccc(Oc3cccc(F)n3)cc2)n(Cc2ccc(C(F)F)cc2)c1=O)C(=O)O [Compound I-168] was tested, and the IC50 was 12 nM. For C[C@@H](Cn1c(=O)[nH]/c(=N\c2ccc(Oc3ncccc3F)cc2)n(Cc2ccc(C(F)F)cc2)c1=O)C(=O)O [Compound I-169], the IC50 was 21 nM. Work on CCOC(=O)[C@H]1C[C@H](n2c(=O)[nH]/c(=N\c3ccc(Oc4ccccn4)cc3)n(Cc3ccc(Cl)cc3)c2=O)C1 [Compound I-170] yielded an IC50 of 15 nM. Work on CCOC(=O)[C@H]1C[C@@H](n2c(=O)[nH]/c(=N\c3ccc(Oc4ccccn4)cc3)n(Cc3ccc(Cl)cc3)c2=O)C1 [Compound I-171] yielded an IC50 of 9 nM. Molecule CCOC(=O)[C@H]1C[C@@H](n2c(=O)[nH]/c(=N\c3ccc(Oc4ccc(Cl)cn4)cc3)n(Cc3ccc(C)cc3)c2=O)C1 [Compound I-173] has an IC50 of 8 nM. Work on O=c1[nH]/c(=N\c2ccc(Oc3ccccn3)cc2)n(Cc2ccc(Cl)cc2)c(=O)n1[C@H]1C[C@H](C(=O)O)C1 [Compound I-174] yielded an IC50 of 6 nM. In the case of O=c1[nH]/c(=N\c2ccc(Oc3ccccn3)cc2)n(Cc2ccc(Cl)cc2)c(=O)n1[C@H]1C[C@@H](C(=O)O)C1 [Compound I-175], the IC50 is reported as 9 nM.
